# From article PMC8229181, “Chemical Characterization and Anti-Inflammatory Activity of Phytoconstituents from Swertia alata” (Plants, 2021)
# What was measured:
# [1] = system: carrageenan induced rat paw edema; test: Carrageenan-induced rat paw edema method; assay type: in vivo, Wistar albino rat; conditions: for Increase in Paw Edema (Mean ± SEM): 3 h after inducing edema, rat
# Description: Carageenan was used to induced paw Edema in Wistar albino rat. Carrageenan induced paw edema is a standard assay for acute inflammation that is effectively employed to evaluate the phytoisolate against anti-inflammatory activity. Edema is produced by a sequential release of inflammatory mediators such as histamine, serotonin, kinnins, prostaglandins and bradykinins, which leads to fluid accumulation. Edema is characteristic of an acute inflammatory response. The release of histamine or serotonin occurs in the first phase (up to 1 h) and the second phase (over 1 h) is associated with the production of bradykinins. It is well known that the third phase of the edema induced by carrageenan, in which the edema reaches its highest volume, is characterized by the presence of prostaglandins and other compounds of slow reaction. Previous studies have shown that phytocompounds of S. alata play an important pharmacological role in inflammation. […] Moreover, several studies support that S. alata species have shown antioxidative effects. Inhibition of COX by S. alata leads to a decrease in all prostaglandin and thromboxane synthesis, which accounts for the beneficial anti-inflammatory and prevents ulcerogenic effects. […] Based on the antioxidant effect, SA4 may involve the inhibition of cyclooxygenase/prostaglandin-endoperoxide synthase (PGHS-1 and PGHS-2), and regulatory enzymes, involved in the biosynthesis of prostaglandin (PG) which is strongly implicated in inflammation.
# The anti-inflammatory activity of isolated compound was evaluated on Wistar albino rat using carrageenan induced rat paw edema method as per the procedure described in earlier research. The animals were divided into groups, consisting of five rats in each group. The prepared compounds were administered orally at doses of 2, 4, 8 mg/kg body weight (oral gavage) and the volume of paw was determined plethysmographically (Ugo-Basile, Gemonio (VA), Italy). […] Carrageenan (0.1 mL, 1.0% w/v in 0.9% of normal saline) was injected after half an hour into the sub-plantar tissue of the rat’s hind paw. The paw volume was measured at hourly intervals for 3 h (0, 1, 2, and 3 h) and the percent inhibition of edema was calculated using the following formula:% inhibition = (1 − Vs/Vc × 100),(1) where, Vs = paw volume in sample treated group, Vc = paw volume in control group.
# human recombinant COX-2 = human recombinant COX-2 (Homo sapiens, UniProt P35354); test: In vitro COX-2 inhibitory assay (enzyme immunoassay kit); assay type: biochemical; conditions: human recombinant COX-2, enzyme immunoassay kit
# Description: (§1) The enzymatic assay was performed as per the manufacturer’s assay instructions and standard literature [48]. COX-1 and COX-2 enzymatic activity provides a simple, sensitive, and high-throughput adaptable method to detect the peroxidase activity of COX in biological samples or purified/crude enzyme preparations. The kit includes COX-1 and COX-2 specific inhibitors to differentiate the activity of COX-1 and COX-2 as well as other peroxidases, which may be present in the sample [49].
# ovine COX-1 = biological target: T1, ovine COX-1 (Ovis aries, UniProt P05979); test: In vitro COX-1 inhibitory assay (enzyme immunoassay kit); assay type: biochemical; conditions: ovine COX-1, enzyme immunoassay kit
# T1 construct: purchased Cayman Chemicals Inc., Ann Arbor, MI, USA 560131
# T1 sequence (P05979 25-600): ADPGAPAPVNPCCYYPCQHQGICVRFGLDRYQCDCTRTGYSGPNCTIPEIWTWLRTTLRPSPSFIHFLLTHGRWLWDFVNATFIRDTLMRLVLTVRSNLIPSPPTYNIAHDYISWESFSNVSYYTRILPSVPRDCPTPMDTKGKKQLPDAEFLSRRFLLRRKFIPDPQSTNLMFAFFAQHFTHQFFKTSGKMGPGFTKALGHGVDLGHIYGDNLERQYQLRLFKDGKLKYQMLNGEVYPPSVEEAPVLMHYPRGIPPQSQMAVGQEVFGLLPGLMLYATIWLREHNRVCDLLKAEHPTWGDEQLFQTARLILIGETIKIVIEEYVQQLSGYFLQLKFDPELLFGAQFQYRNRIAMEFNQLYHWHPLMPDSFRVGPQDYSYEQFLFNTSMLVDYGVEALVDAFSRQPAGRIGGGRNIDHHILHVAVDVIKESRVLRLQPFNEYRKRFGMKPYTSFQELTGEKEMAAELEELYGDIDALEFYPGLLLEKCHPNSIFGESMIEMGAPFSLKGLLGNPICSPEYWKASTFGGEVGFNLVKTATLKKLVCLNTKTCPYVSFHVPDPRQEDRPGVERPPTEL
# Description: as §1
# Sequence of human recombinant COX-2 (P35354 18-604): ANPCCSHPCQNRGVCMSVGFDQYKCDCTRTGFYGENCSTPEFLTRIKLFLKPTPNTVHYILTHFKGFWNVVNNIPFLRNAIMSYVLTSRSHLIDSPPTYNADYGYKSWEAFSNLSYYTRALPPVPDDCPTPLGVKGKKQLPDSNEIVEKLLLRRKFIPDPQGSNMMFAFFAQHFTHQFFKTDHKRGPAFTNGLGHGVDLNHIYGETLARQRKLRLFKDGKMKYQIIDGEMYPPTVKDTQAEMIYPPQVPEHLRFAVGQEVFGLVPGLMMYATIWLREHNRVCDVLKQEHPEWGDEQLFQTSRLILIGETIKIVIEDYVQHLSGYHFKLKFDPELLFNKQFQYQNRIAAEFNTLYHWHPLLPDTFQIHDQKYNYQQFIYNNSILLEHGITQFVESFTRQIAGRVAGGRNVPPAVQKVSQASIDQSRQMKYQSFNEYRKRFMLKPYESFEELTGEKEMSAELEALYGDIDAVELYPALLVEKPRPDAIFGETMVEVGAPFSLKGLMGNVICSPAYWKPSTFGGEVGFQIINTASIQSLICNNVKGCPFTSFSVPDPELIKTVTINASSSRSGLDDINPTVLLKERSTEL
Compound,"Increase in Paw Edema (Mean ± SEM) ([1]; reference drug, oral (8 mg/kg; 21 mg/kg elsewhere in the source)) [mL]",Increase in Paw Edema (Mean ± SEM) ([1]; 2 mg/kg oral) [mL],Increase in Paw Edema (Mean ± SEM) ([1]; 4 mg/kg oral) [mL],Increase in Paw Edema (Mean ± SEM) ([1]; 8 mg/kg oral) [mL],"development of edema at the third hour after treatment ([1]; 8 mg/kg, third hour, p < 0.05)",IC50 (human recombinant COX-2) [µM],IC50 (ovine COX-1) [µM]
"COc1ccc2c(c1)c(CC(=O)O)c(C)n2C(=O)c1ccc(Cl)cc1 [Indomethacin, reference compound]",0.15 ± 0.02,–,–,–,–,–,–
"CC1(C)CC[C@]2(C(=O)O)CC[C@]3(C)C(=CC[C@@H]4[C@@]5(C)CC[C@H](O)C(C)(C)[C@@H]5CC[C@]43C)[C@@H]2C1 [SA-1, oleanolic acid]",–,0.29 ± 0.00,0.27 ± 0.22,0.23 ± 0.01,–,–,–
"CC(C)C1CCC2(C(=O)O)CCC3(C)C(=CCC4C5(C)CCC(O)C(C)(C)C5CCC43C)C12 (stereo not shown) [SA-4, 3-hydroxylup-12-(13)-ene-17-carboxylic acid]",–,0.28 ± 0.00,0.26 ± 0.22,0.17 ± 0.01,significantly inhibited,61.7,104
